These results are taken from patent US20100203033A1, “Kits, formulations and solutions having enzymatically- permissive amounts of visualization agents and uses thereof” (priority 2007, published 2010).

The target in series [1] is T1, thrombin (Homo sapiens, UniProt P00734). Description: Drop test model: migration length of fibrin sealant on a slanted surface (clotting kinetics). In kind it is biochemical. The arrangement: 5 ml of a thrombin solution 5 folds diluted (final: 200 IU/ml). Here is the method: (§1) Human thrombin was mixed with different dyes to final dye concentrations of 0.005-0.2%. The influence of dyes on clotting kinetics was tested using the drop test model. Briefly, measurements of fibrin clotting kinetics were performed on an inclined plane in a device powered by a Nitrogen pressure of 7×10^5 Pa. In each experiment 5 ml of Biological Active Component (BAC) and 5 ml of a thrombin solution 5 folds diluted (final: 200 IU/ml) (in 40 mM CaCl2) were pumped into a separate syringe. […] These two solutions were released (about ⅛ of each) simultaneously, and a mixed drop falls onto a slanted surface. The drop leaks down the slope until a clot is formed. The distance traveled by the drops was recorded on a millimetric paper sheet placed on the slanted surface. […] The migration lengths of the fibrin sealant with the different formulations are listed below in Table 2.

In series [2] the target is T1, thrombin. As to the kind of experiment: Drop test model after freeze and thaw (F&T) of dyed thrombin. The format is biochemical. The arrangement: 5 ml of a thrombin solution 5 folds diluted (final: 200 IU/ml). How it is done: as §1
Human thrombin was formulated with methylene blue, crystal violet, bromothymol blue or riboflavin at final concentrations of 0.005-0.1%. The different formulations were fast frozen to −35° C. and then thawed. The effect of the freeze and thaw procedure on thrombin clotting activity was evaluated using the drop test model (migration time assay as in Example 2).

Series [3] addresses T1, thrombin. As to the kind of experiment: Thrombin clotting activity of dyed thrombin formulations (modified European Pharmacopeia Assay 0903/1997). In kind it is biochemical. The arrangement: measuring thrombin clotting activity in the different formulations. Here is the method: The present study was aimed to determine the effect of dye addition to the fibrin glue formulation on thrombin activity. […] The compatibility of the dyes with thrombin was tested by measuring thrombin clotting activity in the different formulations according to the following modified, European Pharmacopeia Assay (0903/1997), procedure.
(§2) Briefly, standard solution of thrombin (4, 6, 8 and 10 IU/ml) or the test sample were incubated for 2 minutes at 30° C. Then 40 μl thrombin solution of each solution were mixed with 160 μl fibrinogen solution (0.1%; Enzyme research; cat No FIB1 2800L) and clotting time was measured. A calibration curve of log clotting times vs. log thrombin concentration was plotted using the standards. Thrombin activity in the different formulations was determined by the clotting time obtained (calculated automatically by a clotting machine, interpolated from the calibration curve and multiplied by the dilution factor).

Series [4] addresses T1, thrombin. Description: Thrombin clotting activity of dyed thrombin with or without exposure to day light. In kind it is biochemical. The arrangement: measuring thrombin clotting activity in the different formulations. The following applies: 0.02% dye in thrombin solution, uncovered, 6 hours day light. How it is done: as §2
In the adhesion prevention indications the dye may be added to the thrombin component prior to mixing it with BAC. The present experiment was carried out to assess the effect of visualization agent addition to thrombin solution on thrombin clotting activity. Two dyes were evaluated: Indigo Carmine (IC) and Methylene Blue (MB). […] The effect of the dyes on thrombin activity with or without exposure to day light was assessed. The thrombin clotting activity was measured as indicated above in Example 1. […] The samples were mixed with the same fibrinogen solution and the thrombin activity was calculated from the calibration curve. […]
Thrombin activity and the color intensity (OD of IC at 610 nm and of MB at 663 nm) were measured at TO and after exposure to day light for 6 hours. […]

Series [5] is described as follows: Solubility of indigo carmine in thrombin solution by visual inspection. The format is physicochemical. How it is done:
The present example was aimed to determine the maximal solubility of indigo carmine in the thrombin component of the fibrin sealant. Thrombin final container (Omrix, 1,000 IU/ml, 5 ml) was mixed with 1% indigo carmine (dissolved in purified water) to a final concentration of 0.2, 0.21, 0.22, 0.25 or 0.3 mg/ml. The prepared solutions were mixed on a roller for 30 min at room temperature and the solubility limit of the dye was determined by visual inspection.

Setting [6] is: dye concentration within the thrombin component 0.01%.
Where [7] appears, read: dye concentration within the thrombin component 0.02%.
Setting [8] is: dye concentration within the thrombin component 0.005%.
Where [9] appears, read: dye concentration within the thrombin component 0.05%.
Setting [10] is: dye 0.005% in thrombin component.
Setting [11] is: dye concentration within the thrombin component 0.1%.
The mark [12] stands for this setting: dye concentration within the thrombin component 0.2%.

For `Cc1c(C2(c3cc(C(C)C)c(O)c(Br)c3C)OS(=O)(=O)c3ccccc32)cc(C(C)C)c(O)c1Br` [Bromothymol Blue], the Migration length on thrombin [1] (setting [6]) is on record as 9.7 cm; on thrombin [1] (setting [7]), 11.9 cm; on thrombin [2] (dye 0.02% in thrombin component), over 25 cm.
With `CN(C)c1ccc(C(=C2C=CC(=[N+](C)C)C=C2)c2ccc(N(C)C)cc2)cc1` [Crystal Violet], the Migration length at thrombin [1] (setting [8]) was 12.1 cm; at thrombin [1] (setting [6]), 23.9 cm; at thrombin [1] (setting [9]), over 25 cm; at thrombin [2] (setting [10]), 16.3 cm. The Recovered activity on thrombin [3] (setting [6]) came out at 106%; on thrombin [3] (setting [9]), 94%; at thrombin [3] (setting [11]) it was 49%; at thrombin [3] (setting [12]), 22%. The “Thrombin Activity” value at thrombin [3] (setting [6]) turned out to be 1125 IU/ml; on thrombin [3] (setting [9]), 995 IU/ml; at thrombin [3] (setting [11]), 516 IU/ml; on thrombin [3] (setting [12]), 234 IU/ml.
For the compound `CN(C)c1ccc(N=Nc2ccc(S(=O)(=O)[O-])cc2)cc1.[Na+]` [Methyl Orange, Methyl Orange Sodium Salt], the Migration length is on record as 8.26 cm at thrombin [1] (setting [8]) and 7.6 cm at thrombin [1] (setting [6]).
Take `CN(C)c1ccc(/N=N/c2ccccc2C(=O)O)cc1` [Methyl Red, Methyl red]: the Migration length at thrombin [1] (dye dilution 01:26) stood at 12.4 cm; on thrombin [1] (dye dilution 01:51), 10.2 cm.
For the compound `CN(C)c1ccc2nc3ccc(=[N+](C)C)cc-3sc2c1` [Methylene Blue], the Migration length at thrombin [1] (setting [11]) is on record as 10.7 cm; on thrombin [1] (setting [12]) it was 14.3 cm; on thrombin [2] (dye 0.1% in thrombin component), 8.4 cm. Further, the Recovered activity on thrombin [3] (setting [6]) came to 92%; at thrombin [3] (setting [9]), 97%; on thrombin [3] (setting [11]), 90%; on thrombin [3] (setting [12]), 89%. The “Thrombin Activity” value on thrombin [3] (setting [6]) is given as 1018 IU/ml; at thrombin [3] (setting [9]), 1070 IU/ml; at thrombin [3] (setting [11]), 991 IU/ml; on thrombin [3] (setting [12]) it was 978 IU/ml. At thrombin [4], the “reduction in thrombin activity” value was “about 50%”.
Regarding `Cc1cc2nc3c(=O)[nH]c(=O)nc-3n(C[C@H](O)[C@H](O)[C@H](O)CO)c2cc1C` [Riboflavin], the Migration length on thrombin [1] (setting [8]) amounted to 11.5 cm; at thrombin [1] (setting [6]), 13.3 cm; at thrombin [1] (setting [7]), 22.9 cm; on thrombin [2] (setting [10]), 19.8 cm.
Take `O=C1/C(=C2\Nc3ccc(S(=O)(=O)O)cc3C2=O)Nc2ccc(S(=O)(=O)O)cc21` [indigo carmine, Indigotindisulfonate sodium]: the “effect of storage at 2-8 °C” value in series [5] (0.02% indigo carmine dyed thrombin solution, about 30 min at 2-8 °C) is recorded as “sedimentation”. In series [5] (0.02% indigo carmine dyed thrombin solution, after over night incubation at 2-8 °C), the “effect of incubation at room temperature after refrigeration” value is “re-dissolution of the particulate sample”. The “result of visual inspection above the solubility limit” value in series [5] (0.21, 0.22, 0.25 and 0.3 mg/ml in thrombin solution) is listed as “aggregate formation”. In addition, the “concentration at which complete dissolution of the sample was obtained” value in series [5] (thrombin final container 1,000 IU/ml, 30 min on roller at room temperature) was 200 µg/mL.
